Reference: patent US20030229063A1, “Use of 4-hydroxytestosterone to lower estrogen levels in humans” (priority 2002, published 2003)

Legend:
aromatase [1] = target: T1, aromatase (Homo sapiens, UniProt P11511); settings: androstenedione vs testosterone as aromatase substrates; cited from earlier work
T1 sequence (P11511 1-503): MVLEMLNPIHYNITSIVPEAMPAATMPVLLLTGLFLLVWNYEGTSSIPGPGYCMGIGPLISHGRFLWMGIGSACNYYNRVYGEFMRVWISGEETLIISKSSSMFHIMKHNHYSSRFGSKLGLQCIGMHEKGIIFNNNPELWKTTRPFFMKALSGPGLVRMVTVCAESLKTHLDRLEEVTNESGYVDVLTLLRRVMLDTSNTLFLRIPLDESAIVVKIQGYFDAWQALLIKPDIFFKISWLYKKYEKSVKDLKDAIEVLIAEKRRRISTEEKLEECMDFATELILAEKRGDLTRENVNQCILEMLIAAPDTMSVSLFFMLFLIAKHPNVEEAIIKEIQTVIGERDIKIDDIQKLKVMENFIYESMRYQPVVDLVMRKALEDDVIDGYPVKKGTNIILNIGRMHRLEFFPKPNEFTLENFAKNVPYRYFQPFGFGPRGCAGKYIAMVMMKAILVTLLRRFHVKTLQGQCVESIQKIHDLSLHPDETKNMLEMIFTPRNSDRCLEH

aromatase [2] = target: T1, aromatase; test: clinical study of peroral aromatase inhibition in man; format: in vivo; parameters: from tissue; host or cells: in vivo, human subjects (whole body); settings: in humans
aromatase enzyme complex = target: T2, aromatase enzyme complex (Homo sapiens, UniProt P11511); settings: irrevocably attaches the enzyme; cited from earlier work
T2 sequence (P11511 1-503): T1 sequence (P11511 1-503)

Structure (SMILES) | ability to aromatize to the corresponding estrogen (aromatase [1]) | also measured
C[C@]12CC[C@H]3[C@@H](CCC4=CC(=O)CC[C@@]43C)[C@@H]1CC[C@@H]2O [testosterone] | both hormones aromatized with equal efficacy | 
C[C@]12CCC(=O)C=C1CC[C@@H]1[C@@H]2CC[C@]2(C)C(=O)CC[C@@H]12 [androstenedione] | both hormones aromatized with equal efficacy | 
C[C@]12CC[C@H]3[C@@H](CCC4=C(O)C(=O)CC[C@@]43C)[C@@H]1CC[C@@H]2O [4-hydroxytestosterone, 4,17b-dihydroxy-4-androstene-3-one] |  | efficacy as an inhibitor of aromatase compared with 4-hydroxyandrostenedione (aromatase [2]): equally high level of efficacy in humans as an inhibitor of aromatase
C[C@]12CCC(=O)C(O)=C1CC[C@@H]1[C@@H]2CC[C@]2(C)C(=O)CC[C@@H]12 [4-hydroxyandrostenedione] |  | mode of aromatase inhibition (aromatase enzyme complex): suicide substrate for the aromatase enzyme complex
